ChEMBL document CHEMBL2440112, “Structure-activity relationships of the aromatic site in novel anticonvulsant pyrrolo[1,2-a]pyrazine derivatives” (Bioorg Med Chem Lett, 2013)
The source made the active and inactive calls. No cut-off for these calls is given here.

Key:
[1] = system: Mus musculus; assay: Anticonvulsant activity in albino mouse assessed as protection against subcutaneous metrazole-induced seizures at 100 mg/kg, ip after 0.5 hrs; format: functional, organism-based; set-up: dose 100 mg/kg
[2] = system: Mus musculus; assay: Neurotoxicity in albino mouse assessed as minimal motor impairment at 100 mg/kg, ip after 4 hrs by rotorod test; format: toxicity, organism-based; set-up: dose 100 mg/kg, route intraperitoneal; settings: in vivo
[3] = system: Mus musculus; assay: Anticonvulsant activity in albino mouse assessed as protection against maximal electroshock-induced seizures at 100 mg/kg, ip after 4 hrs; format: functional, organism-based; set-up: dose 100 mg/kg
[4] = system: Rattus norvegicus; assay: Anticonvulsant activity in po dosed albino Sprague-Dawley rat assessed as protection against maximal electroshock-induced seizures after […] to 4 hrs; format: functional, organism-based
[5] = system: Mus musculus; assay: Anticonvulsant activity in albino mouse assessed as protection against maximal electroshock-induced seizures at 100 mg/kg, ip after 0.5 hrs; format: functional, organism-based; set-up: dose 100 mg/kg
[6] = system: Mus musculus; assay: Neurotoxicity in albino mouse assessed as minimal motor impairment at 100 mg/kg, ip after 0.5 hrs by rotorod test; format: toxicity, organism-based; set-up: dose 100 mg/kg, route intraperitoneal; settings: in vivo
[7] = system: Mus musculus; assay: Anticonvulsant activity in albino mouse assessed as protection against subcutaneous metrazole-induced seizures at 100 mg/kg, ip after 4 hrs; format: functional, organism-based; set-up: dose 100 mg/kg
[8] = system: Mus musculus; assay: Anticonvulsant activity in albino mouse assessed as protection against 6 Hz psychomotor seizure at 100 mg/kg, ip after 0.5 hrs by minimal clonic seizure test; format: functional, organism-based; set-up: dose 100 mg/kg
[9] = system: Rattus norvegicus; assay: Neurotoxicity in albino Sprague-Dawley rat assessed as minimal motor impairment at 30 mg/kg, ip after 2 hrs by rotorod test; format: toxicity, organism-based; set-up: dose 30 mg/kg, route intraperitoneal; settings: in vivo
[10] = system: Mus musculus; assay: Anticonvulsant activity in albino mouse assessed as protection against subcutaneous metrazole-induced seizures at 100 mg/kg, ip after 0.25 hrs; format: functional, organism-based; set-up: dose 100 mg/kg
[11] = system: Mus musculus; assay: Anticonvulsant activity in albino mouse assessed as protection against maximal electroshock-induced seizures at 100 mg/kg, ip after 0.25 hrs; format: functional, organism-based; set-up: dose 100 mg/kg
[12] = system: Rattus norvegicus; assay: Anticonvulsant activity in albino Sprague-Dawley rat assessed as protection against maximal electroshock-induced seizures at 30 mg/kg, ip after 2 hrs; format: functional, organism-based; set-up: dose 30 mg/kg
[13] = system: Rattus norvegicus; assay: Anticonvulsant activity in albino Sprague-Dawley rat assessed as protection against maximal electroshock-induced seizures at 30 mg/kg, ip after 1 hr; format: functional, organism-based; set-up: dose 30 mg/kg
[14] = system: Rattus norvegicus; assay: Neurotoxicity in albino Sprague-Dawley rat assessed as minimal motor impairment at 30 mg/kg, ip after 4 hrs by rotorod test; format: toxicity, organism-based; set-up: dose 30 mg/kg, route intraperitoneal; settings: in vivo
[15] = system: Mus musculus; assay: Neurotoxicity in albino mouse minimal clonic seizure model assessed as minimal motor impairment at 100 mg/kg, ip after 1 hr by rotorod test; format: toxicity, organism-based; set-up: dose 100 mg/kg, route intraperitoneal; settings: in vivo
[16] = system: Mus musculus; assay: Neurotoxicity in albino mouse minimal clonic seizure model assessed as minimal motor impairment at 100 mg/kg, ip after 2 hrs by rotorod test; format: toxicity, organism-based; set-up: dose 100 mg/kg, route intraperitoneal; settings: in vivo
[17] = system: Mus musculus; assay: Anticonvulsant activity in albino mouse assessed as protection against 6 Hz psychomotor seizure at 100 mg/kg, ip after 1 hr by minimal clonic seizure test; format: functional, organism-based; set-up: dose 100 mg/kg
[18] = system: Mus musculus; assay: Neurotoxicity in albino mouse assessed as minimal motor impairment at 100 mg/kg, ip after 1 hr by rotorod test; format: toxicity, organism-based; set-up: dose 100 mg/kg, route intraperitoneal; settings: in vivo
[19] = system: Mus musculus; assay: Anticonvulsant activity in albino mouse assessed as protection against subcutaneous metrazole-induced seizures at 100 mg/kg, ip after 1 hr; format: functional, organism-based; set-up: dose 100 mg/kg
[20] = system: Mus musculus; assay: Neurotoxicity in albino mouse minimal clonic seizure model assessed as minimal motor impairment at 100 mg/kg, ip after 0.25 hrs by rotorod test; format: toxicity, organism-based; set-up: dose 100 mg/kg, route intraperitoneal; settings: in vivo
[21] = system: Mus musculus; assay: Anticonvulsant activity in albino mouse assessed as protection against 6 Hz psychomotor seizure at 100 mg/kg, ip after 2 hrs by minimal clonic seizure test; format: functional, organism-based; set-up: dose 100 mg/kg
[22] = system: Mus musculus; assay: Anticonvulsant activity in albino mouse assessed as protection against 6 Hz psychomotor seizure at 100 mg/kg, ip after 4 hrs by minimal clonic seizure test; format: functional, organism-based; set-up: dose 100 mg/kg
[23] = system: Mus musculus; assay: Neurotoxicity in albino mouse assessed as minimal motor impairment at 100 mg/kg, ip after 0.25 hrs by rotorod test; format: toxicity, organism-based; set-up: dose 100 mg/kg, route intraperitoneal; settings: in vivo
[24] = system: Rattus norvegicus; assay: Neurotoxicity in albino Sprague-Dawley rat assessed as minimal motor impairment at 30 mg/kg, ip after 0.25 hrs by rotorod test; format: toxicity, organism-based; set-up: dose 30 mg/kg, route intraperitoneal; settings: in vivo
[25] = system: Rattus norvegicus; assay: Anticonvulsant activity in albino Sprague-Dawley rat assessed as protection against maximal electroshock-induced seizures at 30 mg/kg, ip after 0.5 hrs; format: functional, organism-based; set-up: dose 30 mg/kg
[26] = system: Mus musculus; assay: Neurotoxicity in albino mouse minimal clonic seizure model assessed as minimal motor impairment at 100 mg/kg, ip after 4 hrs by rotorod test; format: toxicity, organism-based; set-up: dose 100 mg/kg, route intraperitoneal; settings: in vivo
[27] = system: Rattus norvegicus; assay: Anticonvulsant activity in albino Sprague-Dawley rat assessed as protection against maximal electroshock-induced seizures at 30 mg/kg, ip after 4 hrs; format: functional, organism-based; set-up: dose 30 mg/kg
[28] = system: Mus musculus; assay: Neurotoxicity in albino mouse minimal clonic seizure model assessed as minimal motor impairment at 100 mg/kg, ip after 0.5 hrs by rotorod test; format: toxicity, organism-based; set-up: dose 100 mg/kg, route intraperitoneal; settings: in vivo
[29] = system: Mus musculus; assay: Anticonvulsant activity in albino mouse assessed as protection against 6 Hz psychomotor seizure at 100 mg/kg, ip after 0.25 hrs by minimal clonic seizure test; format: functional, organism-based; set-up: dose 100 mg/kg
[30] = system: Rattus norvegicus; assay: Neurotoxicity in albino Sprague-Dawley rat assessed as minimal motor impairment at 30 mg/kg, ip after 0.5 hrs by rotorod test; format: toxicity, organism-based; set-up: dose 30 mg/kg, route intraperitoneal; settings: in vivo
[31] = system: Mus musculus; assay: Anticonvulsant activity in albino mouse assessed as protection against maximal electroshock-induced seizures at 100 mg/kg, ip after 1 hr; format: functional, organism-based; set-up: dose 100 mg/kg
[32] = system: Rattus norvegicus; assay: Anticonvulsant activity in albino Sprague-Dawley rat assessed as protection against maximal electroshock-induced seizures at 30 mg/kg, ip after 0.25 hrs; format: functional, organism-based; set-up: dose 30 mg/kg
[33] = system: Rattus norvegicus; assay: Neurotoxicity in albino Sprague-Dawley rat assessed as minimal motor impairment at 30 mg/kg, ip after 1 hr by rotorod test; format: toxicity, organism-based; set-up: dose 30 mg/kg, route intraperitoneal; settings: in vivo
[34] = Neurotoxicity in ip dosed albino mouse minimal clonic seizure model assessed as minimal motor impairment by rotorod test; format: toxicity, organism-based; settings: in vivo
[35] = system: Mus musculus; assay: Anticonvulsant activity in ip dosed albino mouse assessed as time of peak effect for protection against 6 Hz psychomotor seizure by minimal clonic seizure test; format: functional

O=C1NC(=O)[C@@H]2CCCN2[C@H]1c1ccoc1
Activity [1]: inactive | Activity [2]: Non-toxic | Activity [3]: inactive | Activity [4]: inactive | Activity [5]: inactive | Activity [6]: Non-toxic | Activity [7]: inactive

Cc1cccc([C@H]2C(=O)NC(=O)[C@@H]3CCCN23)c1
Activity [8]: Active | Activity [9]: Non-toxic | Activity [1]: inactive | Activity [10]: Active | Activity [11]: Active | Activity [12]: inactive | Activity [2]: Non-toxic | Activity [3]: inactive | Activity [13]: inactive | Activity [4]: inactive | Activity [14]: Non-toxic | Activity [15]: Non-toxic | Activity [16]: Non-toxic | Activity [17]: inactive | Activity [18]: Non-toxic | Activity [19]: inactive | Activity [20]: Toxic | Activity [21]: inactive | Activity [22]: inactive | Activity [23]: Toxic | Activity [5]: Active | Activity [24]: Non-toxic | Activity [25]: inactive | Activity [26]: Non-toxic | Activity [27]: inactive | Activity [28]: Non-toxic | Activity [29]: Active | Activity [30]: Non-toxic | Activity [6]: Non-toxic | Activity [7]: inactive | Activity [31]: inactive | Activity [32]: inactive | Activity [33]: Non-toxic

O=C1NC(=O)[C@@H]2CCCN2[C@H]1c1cccc2ccccc12
Activity [1]: inactive | Activity [2]: Non-toxic | Activity [3]: inactive | Activity [4]: inactive | Activity [5]: inactive | Activity [6]: Non-toxic | Activity [7]: inactive

CC[C@@H](C(N)=O)N1CCCC1=O
TD50 [34]: > 500 mg/kg | Time [35]: 1 h
